This note sets out measurements from paper doi:10.1101/2021.10.07.463234v2 (biorxiv, 2021).

Where a name gives a salt, the structure may show the parent alone. Bridge positions count the residues as written; N and C are the ends. Peptide text beside a SMILES is read from it.

One assay addresses SARS-CoV-2 Mac1 (Severe acute respiratory syndrome coronavirus 2, UniProt P0DTD1). The assay can be described thus: biochemical. Conditions: 100 µM; inhibitor.
In general, %inhibition refers to how much of the control response was suppressed. Turning to `COc1ccc2c(c1)c(CC(=O)O)c(C)n2C(=O)c1ccc(Cl)cc1` [Indomethacin], the “%inhibition” value turned out to be 39.29%.

For the molecule `CC[C@H]1OC(=O)[C@H](C)[C@@H](O[C@H]2C[C@@](C)(OC)[C@@H](O)[C@H](C)O2)[C@H](C)[C@@H](O[C@@H]2O[C@H](C)C[C@H](N(C)C)[C@H]2O)[C@](C)(O)C[C@@H](C)C(=O)[C@H](C)[C@@H](O)[C@]1(C)O` [Erythromycin thiocyanate], the “%inhibition” value amounted to 1.029%.

Turning to `CC(C(=O)O)c1ccc(CC2CCCC2=O)cc1` (centres unmarked) [Loxoprofen], the “%inhibition” value amounted to 5.364%.

`CC[C@H]1OC(=O)C[C@@H](O)[C@H](C)[C@@H](O[C@@H]2O[C@H](C)[C@@H](O)[C@H](N(C)C)[C@H]2O)[C@@H](CCN2C[C@H](C)C[C@H](C)C2)C[C@@H](C)C(=O)/C=C/C(C)=C/[C@@H]1CO[C@@H]1O[C@H](C)[C@@H](O)[C@@H](OC)[C@H]1OC` [Tilmicosin]: the “%inhibition” value is 23.11%.

`COc1cc2c(cc1OC)C(=O)C(CC1CCN(Cc3ccccc3)CC1)C2` (centres unmarked) [Donepezil HCl]: the “%inhibition” value is reported as 0%.

In the case of `Cn1c(=O)cc(N2CCC[C@@H](N)C2)n(Cc2cc(F)ccc2C#N)c1=O` [Trelagliptin succinate], the “%inhibition” value worked out at 24.59%.

For `CN(C)CC(c1ccc(O)cc1)C1(O)CCCCC1` (centres unmarked) [Desvenlafaxine], the “%inhibition” value stood at 6.836%.

The assay is the same for the next values; noted with them: read-out: %inhibition.
As a reminder, the inhibition is the drop in the measured response relative to a control, in per cent. Take `C[C@H](N[C@@H](CCc1ccccc1)C(=O)O)C(=O)N1CCC[C@H]1C(=O)O` [Enalaprilat Dihydrate]: the inhibition at 100 µM was 10.6%.

Consider `CCC(C)(C)C(=O)O[C@H]1C[C@@H](C)C=C2C=C[C@H](C)[C@H](CC[C@@H]3C[C@@H](O)CC(=O)O3)[C@H]21` [Simvastatin], for which the inhibition at 100 µM was 14%.

Take `O=C(O)CCCC[C@@H]1CCSS1` (racemic) [Thioctic acid]: the inhibition at 100 µM stood at 22.2%.

For the molecule `COc1ccc(C(=O)c2ccccc2)c(O)c1` [Oxybenzone], the inhibition at 100 µM was determined as 0.0343%.

For `Cc1ncc(COP(=O)(O)O)c(C=O)c1O` [Pyridoxal phosphate], the inhibition at 100 µM was determined as 0%.

Consider `COc1cc2c(cc1OC)[C@H]1CC(=O)[C@H](CC(C)C)CN1CC2` [Tetrabenazine (Xenazine)], for which the inhibition at 100 µM worked out at 18.7%.

On to `C[C@]12C=CC(=O)C=C1CC[C@@H]1[C@@H]2[C@@H](O)C[C@@]2(C)[C@H]1CC[C@]2(O)C(=O)CO` [Prednisolone], for which the inhibition at 100 µM is 31%.

As to `Cn1nnc(-c2ccc(-c3ccc(N4C[C@H](CO)OC4=O)cc3F)cn2)n1` [Tedizolid], the inhibition at 100 µM is 0%.

Regarding `NCCCC[C@H](NC(=O)[C@@H]1CCCN1C(=O)[C@@H]1CSSC[C@H](NC(=O)CNC(=O)CNC(=O)CN)C(=O)N[C@@H](Cc2ccc(O)cc2)C(=O)N[C@@H](Cc2ccccc2)C(=O)N[C@@H](CCC(N)=O)C(=O)N[C@@H](CC(N)=O)C(=O)N1)C(=O)NCC(N)=O` [Terlipressin Acetate] (H-GGGCYFQNCPKG-NH2; disulfide 4-9), the inhibition at 100 µM was 0%.

With `O=C1c2cccc(O)c2C(=O)c2c(O)cccc21` [Danthron], the inhibition at 100 µM turned out to be 0%.

For the molecule `COc1nc(C)nc(Cl)c1NC1=NCCN1` [Moxonidine], the inhibition at 100 µM was determined as 0%.

Regarding `CC1(C)O[C@@H]2C[C@H]3[C@@H]4CCC5=CC(=O)C=C[C@]5(C)[C@@]4(F)[C@@H](O)C[C@]3(C)[C@]2(C(=O)CO)O1` [Triamcinolone Acetonide], the inhibition at 100 µM is 0%.

Consider `CN(C)C(=O)Oc1ccc[n+](C)c1` [Pyridostigmine Bromide], for which the inhibition at 100 µM is 0%.

As for `O=C(/C=C/C=C/c1ccc2c(c1)OCO2)N1CCCCC1` [Piperine], the inhibition at 100 µM turned out to be 0%.

In the case of `COc1cc2ncnc(Nc3ccc(F)c(Cl)c3)c2cc1NC(=O)/C=C/CN1CCCCC1` [Dacomitinib (PF299804, PF299)], the inhibition at 100 µM turned out to be 3.46%.

Turning to `CO/N=C(\C(=O)N[C@@H]1C(=O)N2C(C(=O)OC(C)OC(C)=O)=C(COC(N)=O)CS[C@H]12)c1ccco1` (some centres unmarked) [Cefuroxime axetil], the inhibition at 100 µM was 0%.

Turning to `CN1CCN(CCOc2cc(OC3CCOCC3)c3c(Nc4c(Cl)ccc5c4OCO5)ncnc3c2)CC1` [Saracatinib (AZD0530)], the inhibition at 100 µM came out at 32.3%.

Take `C#CCC(Cc1cnc2nc(N)nc(N)c2n1)c1ccc(C(=O)N[C@@H](CCC(=O)O)C(=O)O)cc1` (some centres unmarked) [Pralatrexate]: the inhibition at 100 µM was 13.2%.

For the molecule `CCCc1nn(C)c2c(=O)[nH]c(-c3cc(S(=O)(=O)N4CCN(C)CC4)ccc3OCC)nc12` [Sildenafil Citrate], the inhibition at 100 µM amounted to 0%.

For `CC(C)NCC(O)c1ccc(O)c(O)c1` (centres unmarked) [Isoprenaline HCl], the inhibition at 100 µM was determined as 5.07%.

Regarding `CN(C)CCCN1c2ccccc2CCc2ccccc21` [Imipramine HCl], the inhibition at 100 µM turned out to be 2.2%.

For the molecule `CC(C(=O)O)c1cccc(C(=O)c2ccccc2)c1` (centres unmarked) [Ketoprofen], the inhibition at 100 µM is 0%.

On to `CCC1=C(C)CN(C(=O)NCCc2ccc(S(=O)(=O)NC(=O)N[C@H]3CC[C@H](C)CC3)cc2)C1=O` [Glimepiride], for which the inhibition at 100 µM was 22.5%.

As to `NCC[C@H](O)C(=O)N[C@@H]1C[C@H](N)[C@@H](O[C@H]2O[C@H](CN)[C@@H](O)[C@H](O)[C@H]2O)[C@H](O)[C@H]1O[C@H]1O[C@H](CO)[C@@H](O)[C@H](N)[C@H]1O` [Amikacin disulfate], the inhibition at 100 µM stood at 0%.

`O=C(O)COCCN1CCN(C(c2ccccc2)c2ccc(Cl)cc2)CC1` (centres unmarked) [Cetirizine DiHCl]: the inhibition at 100 µM was 1.2%.

On to `CCOC(=O)c1c(C)n(C)c2ccc(O)cc12` [Mecarbinate], for which the inhibition at 100 µM came to 0%.

Regarding `Cc1cc(S(=O)(=O)O)c2c(C)ccc(C(C)C)cc1-2` [Sodium gualenate], the inhibition at 100 µM amounted to 12.6%.

For `Cc1c(C(=O)NN2CCCCC2)nn(-c2ccc(Cl)cc2Cl)c1-c1ccc(Cl)cc1` [Rimonabant], the inhibition at 100 µM is 3.4%.

On to `OC[C@@H](O)[C@@H](O)[C@H](O)[C@H](O)CO` [D-Mannitol], for which the inhibition at 100 µM worked out at 0%.

As to `CO[C@@]1(NC(=O)C(C(=O)O)c2ccc(O)cc2)C(=O)N2C(C(=O)O)=C(CSc3nnnn3C)CO[C@@H]21` (some centres unmarked) [Latamoxef sodium], the inhibition at 100 µM was 17%.

Regarding `CCC[S+]([O-])c1ccc2[nH]c(NC(=O)OC)nc2c1` (centres unmarked) [Albendazole Oxide], the inhibition at 100 µM is 28%.

As to `O=C(O)[C@H]1O[C@H](O)[C@H](O)[C@@H](O)[C@@H]1O` [Sodium Gluconate], the inhibition at 100 µM was found to be 0%.

`CCCS(=O)(=O)Nc1ccc(F)c(C(=O)c2c[nH]c3ncc(-c4ccc(Cl)cc4)cc23)c1F` [Vemurafenib (PLX4032, RG7204)]: the inhibition at 100 µM stood at 2.37%.

For the molecule `COc1ccc2cc([C@H](C)C(=O)O)ccc2c1` [Naproxen Sodium], the inhibition at 100 µM amounted to 0%.

For the molecule `CN1CCOC(c2ccccc2)c2ccccc2C1` (centres unmarked) [Nefopam HCl], the inhibition at 100 µM came out at 0%.

With `CCOC(=O)C1=C(COCCN)NC(C)=C(C(=O)OC)C1c1ccccc1Cl` (centres unmarked) [Amlodipine], the inhibition at 100 µM came out at 25.5%.

For the molecule `CN(C)[C@@H](CCOc1cccc2ccccc12)c1ccccc1` [Dapoxetine HCl], the inhibition at 100 µM came out at 35.7%.

For the molecule `CCOC(=O)Nc1ccc(NCc2ccc(F)cc2)nc1N` [Flupirtine maleate], the inhibition at 100 µM was determined as 4.99%.

Turning to `CC(=O)N1CCN(c2ccc(OC[C@@H]3CO[C@@](Cn4ccnc4)(c4ccc(Cl)cc4Cl)O3)cc2)CC1` (racemic) [Ketoconazole], the inhibition at 100 µM stood at 19.1%.

On to `C[C@]12CCC(=O)C(O)=C1CC[C@@H]1[C@@H]2CC[C@]2(C)C(=O)CC[C@@H]12` [Formestane], for which the inhibition at 100 µM is 0%.

As to `O=c1[nH]c(=O)n([C@H]2C[C@H](O)[C@@H](CO)O2)cc1I` [Idoxuridine], the inhibition at 100 µM came to 44.1%.

On to `Cc1cc(NC(=O)C2=C(O)c3ccccc3S(=O)(=O)N2C)no1` [Isoxicam], for which the inhibition at 100 µM was 13.6%.

For the molecule `Nc1ccc(/N=N/c2ccccc2)c(N)n1` [Phenazopyridine HCl], the inhibition at 100 µM stood at 17%.

For the molecule `Cn1cnc2c(F)c(Nc3ccc(Br)cc3F)c(C(=O)NOCCO)cc21` [Binimetinib (MEK162, ARRY-162, ARRY-438162)], the inhibition at 100 µM came out at 24%.

For the molecule `CC(C)C(=O)c1c(C(C)C)nn2ccccc12` [Ibudilast], the inhibition at 100 µM worked out at 0%.

Regarding `O=C1C2CC3CC1CC(O)(C3)C2` [Idramantone], the inhibition at 100 µM came out at 3.83%.

Regarding `COc1ccc(C2C(=O)c3ccccc3C2=O)cc1` [Anisindione], the inhibition at 100 µM came to 2.26%.

As for `NCCCC(N)(C(=O)O)C(F)F` (centres unmarked) [Eflornithine hydrochloride hydrate], the inhibition at 100 µM was found to be 0%.

On to `CN1C(C(=O)Nc2ccccn2)=C(O)c2sccc2S1(=O)=O` [Tenoxicam], for which the inhibition at 100 µM was 0%.

Regarding `CCOC(=O)/C=C(C)/C=C/C=C(C)/C=C/c1c(C)cc(OC)c(C)c1C` [Etretinate], the inhibition at 100 µM was determined as 24.9%.

`Cc1cccc(C)c1NC1=NCCCS1` [Xylazine HCl]: the inhibition at 100 µM stood at 25.3%.

As to `CC(=O)CCCCn1c(=O)c2c(ncn2C)n(C)c1=O` [Pentoxifylline], the inhibition at 100 µM is 19.6%.

As for `CC1(C)[C@@H](OC(=O)CCC(=O)O)CC[C@]2(C)[C@H]3C(=O)C=C4[C@@H]5C[C@@](C)(C(=O)O)CC[C@]5(C)CC[C@@]4(C)[C@]3(C)CC[C@@H]12` [Carbenoxolone Sodium], the inhibition at 100 µM was determined as 4.8%.

In the case of `CCCSc1nc(N[C@@H]2C[C@H]2c2ccc(F)c(F)c2)c2nnn([C@@H]3C[C@H](OCCO)[C@@H](O)[C@H]3O)c2n1` [Ticagrelor], the inhibition at 100 µM is 6.12%.

Turning to `O=C(NC1CCN(CCCCC2(C(=O)NCC(F)(F)F)c3ccccc3-c3ccccc32)CC1)c1ccccc1-c1ccc(C(F)(F)F)cc1` [Lomitapide], the inhibition at 100 µM amounted to 17.8%.

For the molecule `Cn1cnc2c(F)c(Nc3ccc(Br)cc3Cl)c(C(=O)NOCCO)cc21` [Selumetinib (AZD6244)], the inhibition at 100 µM is 24.4%.

In the case of `CCOC(=O)N[C@@H]1CC[C@@H]2[C@@H](C1)C[C@H]1C(=O)O[C@H](C)[C@H]1[C@H]2/C=C/c1ccc(-c2cccc(F)c2)cn1` [Vorapaxar], the inhibition at 100 µM was 0%.

On to `COC(=O)[C@H](c1ccccc1Cl)N1CCc2sccc2C1` [Clopidogrel], for which the inhibition at 100 µM came out at 0%.
